The assay addresses T1, Adenosine A1 (Rattus norvegicus, UniProt P25099).
T1 construct: gene Adora1; native receptor in rat forebrain P2 membranes
T1 sequence (P25099 1-326): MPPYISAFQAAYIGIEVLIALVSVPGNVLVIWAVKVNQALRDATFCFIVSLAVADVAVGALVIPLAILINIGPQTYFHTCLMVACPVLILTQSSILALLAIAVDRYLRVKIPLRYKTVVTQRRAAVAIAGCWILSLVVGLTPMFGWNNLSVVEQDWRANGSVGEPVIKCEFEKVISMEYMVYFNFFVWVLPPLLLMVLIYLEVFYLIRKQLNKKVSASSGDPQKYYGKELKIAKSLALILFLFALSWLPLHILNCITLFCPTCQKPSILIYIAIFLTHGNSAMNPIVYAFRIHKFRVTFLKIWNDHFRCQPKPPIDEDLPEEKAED
Description: […]GTPγS binding, rat forebrain membranes. The following applies: agonist; control without GSNO; 10 μM GDP, pH 7.4, 25 °C. It is filed as biochemical. (GTPγS is a poorly hydrolysed GTP analogue; its binding reports G protein activation.)

Take `Nc1nc(Cl)nc2c1ncn2[C@@H]1O[C@H](CO)[C@@H](O)[C@H]1O` [2-chloroadenosine]: the “Control / log(EC50)” value is listed as -6.90 ± 0.04.
